From patent US10494332B2, “Protein tyrosine phosphatases or SHP2 inhibitors and uses thereof” (Indiana University Research and Technology Corporation, priority 2015, dated 2019)
Entries after “also recorded” stand apart in the source; their conditions may differ.

How the values were obtained:
[1] = tested on: MDA-MB-231 breast cancer cell line; test: MTT cell proliferation assay; assay type: cell-based, human; details: 20 μM and 40 μM, 2 days
Description: (§1) Human non-small cell lung carcinoma cell line H1975 was cultured at 37° C. and 5% CO2 in RPMI-1640 (Corning) supplemented with 10% fetal bovine serum (HyClone). Human breast cancer cell line MDA-MB-231 was cultured in DMEM supplemented with 10% fetal bovine serum. For cell proliferation assay, 2˜3×10^3 cells were seeded in each well of 96-well plates. After treating cells with compounds for 2 days, cells were incubated with 50 μg/ml MTT (3-(4,5-Dimethylthiazol-2-yl)-2,5-diphenyltetrazolium bromide) for ˜3-4 hours. Then, the culture medium was removed, DMSO was added to dissolve the formazan crystals. Wells containing only media were used for background correction. The optical density was measured spectrophotometrically at 540 nm. For signaling analysis, cells were serum-starved overnight followed by treatment with vehicle or compounds for 3 hours, and then either left un-stimulated or stimulated with 5 μg/ml EGF or 10 nM PMA (Sigma) for indicated time. Cells were lysed and the lysates were electrophoresed on a 10% polyacrylamide gel, and then transferred to a nitrocellulose membrane, and probed with anti-phospho-ERK1/2 and anti-ERK1/2 (Cell Signaling) antibodies followed by incubation with horseradish peroxidase-conjugated secondary antibodies. The blots were developed by the enhanced chemiluminescence technique using the SuperSignal West Pico Chemiluminescent substrate (Pierce).

[2] = tested on: H1975 non-small cell lung cancer (NSCLC) cell line; test: MTT cell proliferation assay; assay type: cell-based, human; details: 20 μM and 40 μM, 2 days
Description: as §1

SHP2 [3] = molecular target: T1, SHP2 (Homo sapiens, UniProt Q06124); test: SHP2 phosphatase inhibition assay (pNPP); assay type: biochemical; details: for IC50: Example 9: SHP2 catalytic domain 20 nM, pNPP 3 mM, pH 7.0, 25° C., read-out: IC50 SHP2
T1 sequence (Q06124 224-528): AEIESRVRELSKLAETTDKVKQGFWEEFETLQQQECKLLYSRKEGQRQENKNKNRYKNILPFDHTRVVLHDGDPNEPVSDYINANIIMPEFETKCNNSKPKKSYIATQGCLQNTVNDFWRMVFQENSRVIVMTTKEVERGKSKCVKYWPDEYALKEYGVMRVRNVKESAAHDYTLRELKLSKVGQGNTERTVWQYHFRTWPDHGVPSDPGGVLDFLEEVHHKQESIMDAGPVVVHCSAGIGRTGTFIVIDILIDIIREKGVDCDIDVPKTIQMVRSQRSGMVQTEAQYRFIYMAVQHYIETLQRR

PTPμ = PTPμ (Homo sapiens, UniProt P28827); test: biochemical
PP5 = molecular target: T2, PP5 (Homo sapiens, UniProt P53041); test: biochemical
T2 sequence (P53041 1-499): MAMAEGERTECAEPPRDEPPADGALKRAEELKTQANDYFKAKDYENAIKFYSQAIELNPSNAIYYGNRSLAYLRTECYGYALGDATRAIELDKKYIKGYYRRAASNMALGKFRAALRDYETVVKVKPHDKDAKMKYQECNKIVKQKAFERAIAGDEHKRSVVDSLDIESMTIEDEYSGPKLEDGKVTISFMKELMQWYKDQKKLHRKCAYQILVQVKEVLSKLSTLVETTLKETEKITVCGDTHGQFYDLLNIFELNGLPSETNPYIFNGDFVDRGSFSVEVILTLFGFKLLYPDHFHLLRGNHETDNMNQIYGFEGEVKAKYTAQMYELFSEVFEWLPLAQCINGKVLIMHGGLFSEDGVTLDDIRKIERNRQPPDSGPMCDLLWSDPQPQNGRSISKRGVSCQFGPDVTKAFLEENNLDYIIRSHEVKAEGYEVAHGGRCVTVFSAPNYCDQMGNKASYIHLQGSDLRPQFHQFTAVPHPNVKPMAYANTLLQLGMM

Ssu72 = molecular target: T3, Ssu72 (Homo sapiens, UniProt Q9NP77); test: PTP inhibition assay (pNPP); assay type: biochemical; details: IC50 Ssu72
T3 sequence (Q9NP77 1-194): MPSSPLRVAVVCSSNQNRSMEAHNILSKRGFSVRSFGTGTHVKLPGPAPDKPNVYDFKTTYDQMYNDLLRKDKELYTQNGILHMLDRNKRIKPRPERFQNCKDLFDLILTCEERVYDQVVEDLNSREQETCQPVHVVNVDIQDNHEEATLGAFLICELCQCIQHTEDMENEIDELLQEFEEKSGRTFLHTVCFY

PEST = molecular target: T4, PEST (Homo sapiens, UniProt Q05209); test: PTP inhibition assay (pNPP); assay type: biochemical; details: IC50 PEST
T4 sequence (Q05209 1-780): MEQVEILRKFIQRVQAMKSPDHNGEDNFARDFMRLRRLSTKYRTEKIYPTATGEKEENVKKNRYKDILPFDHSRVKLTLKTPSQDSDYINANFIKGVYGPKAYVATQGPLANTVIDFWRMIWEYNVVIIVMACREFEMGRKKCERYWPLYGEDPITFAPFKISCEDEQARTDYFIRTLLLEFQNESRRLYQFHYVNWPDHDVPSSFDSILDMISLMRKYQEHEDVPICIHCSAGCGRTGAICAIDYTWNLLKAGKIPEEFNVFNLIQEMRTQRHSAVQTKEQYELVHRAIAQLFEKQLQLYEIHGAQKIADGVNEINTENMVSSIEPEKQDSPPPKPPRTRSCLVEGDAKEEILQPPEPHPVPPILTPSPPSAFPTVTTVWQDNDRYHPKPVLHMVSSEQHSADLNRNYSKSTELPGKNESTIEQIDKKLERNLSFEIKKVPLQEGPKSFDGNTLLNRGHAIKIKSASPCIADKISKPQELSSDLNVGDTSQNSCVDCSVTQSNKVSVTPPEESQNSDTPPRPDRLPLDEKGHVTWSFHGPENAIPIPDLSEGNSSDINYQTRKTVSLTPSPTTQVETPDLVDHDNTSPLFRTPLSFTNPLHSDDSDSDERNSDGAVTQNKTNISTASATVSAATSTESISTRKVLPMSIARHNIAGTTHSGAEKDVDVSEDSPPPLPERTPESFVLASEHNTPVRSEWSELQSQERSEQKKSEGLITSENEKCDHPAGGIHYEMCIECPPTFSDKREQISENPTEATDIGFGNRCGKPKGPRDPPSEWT

FAP1 = FAP1 (Homo sapiens, UniProt Q12923); test: PTP inhibition assay (pNPP); assay type: biochemical; details: IC50 FAP1
VHX = molecular target: T5, VHX (Homo sapiens, UniProt Q9NRW4); test: PTP inhibition assay (pNPP); assay type: biochemical; details: IC50 VHX, pNPP at Km, pH 7.0, 25° C.
T5 sequence (Q9NRW4 1-184): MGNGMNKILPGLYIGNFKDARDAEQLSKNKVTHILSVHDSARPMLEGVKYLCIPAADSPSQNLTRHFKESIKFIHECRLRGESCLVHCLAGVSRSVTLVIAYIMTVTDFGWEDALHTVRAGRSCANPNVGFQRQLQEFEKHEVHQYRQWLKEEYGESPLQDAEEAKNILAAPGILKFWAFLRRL

TbPTP1 = TbPTP1 (Trypanosoma brucei brucei, UniProt Q38AT7); test: PTP inhibition assay (pNPP); assay type: biochemical; details: pNPP at Km, pH 7.0, 25° C.; read-out: IC50 TbPTP1
[4] = tested on: EGF-mediated ERK1/2 phosphorylation in H1975 cells; test: EGF-induced ERK1/2 phosphorylation immunoblot; assay type: cell-based, human; details: compound 7 at 40 μM
Description: as §1

mPTPA = mPTPA (Mycobacterium tuberculosis, UniProt P9WIA1); test: biochemical; details: IC50 mPTPA
LMWPTP = molecular target: T6, LMWPTP (Homo sapiens, UniProt P24666); test: PTP inhibition assay (pNPP); assay type: biochemical; details: pNPP at Km, pH 7.0, 25° C.
T6 sequence (P24666 1-158): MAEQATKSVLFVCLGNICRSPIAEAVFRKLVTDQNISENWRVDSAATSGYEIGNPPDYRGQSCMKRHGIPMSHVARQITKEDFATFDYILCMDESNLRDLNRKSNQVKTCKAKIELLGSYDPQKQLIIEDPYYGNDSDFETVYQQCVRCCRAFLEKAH

SHP2 [5] = molecular target: SHP2 (Homo sapiens, UniProt Q06124); test: Covalent modification of SHP2 by QTOF ESI-MS / LC-MS; details: 100 μM compound; cefsulodin three hours, phenyl vinyl sulfone 10 minutes
Description: Agilent 6520 Accurate-Mass was used for the Q-TOF ESI-MS studies. Water and acetonitrile (both containing 0.1% formic acid) were used as eluent (80% water, flow 50 μL/min, run time 5 minutes). ESI positive mode was used with mass range from 300 to 1700, the gas temperature was 325° C., and vaporizer temperature was: […]. The sample was adjusted to have a concentration at 0.1 mg/mL, the injection volume of each sample was 1 μL. Mass hunter software was used for protein deconvolution data analysis to calculate the molecular weight of the protein.
Agilent Technologies 6130 quadrupole LC-MS instrument was used for the LC-MS studies. A C18 reserved phase column (phenomenex, 50×4.6 mm) was used as stationary phase, water and methanol (both containing 0.1% formic acid) were used as mobile phase (gradient: 0-100% methanol, flow 0.8 mL/min, run time 15 minutes), and UV absorbance at the fixed wavelength of 254 nm and positive and negative ESI-MS data were recorded. The sample was adjusted to have a concentration at 0.1 mg/mL, and the injection volume of each sample was 0.2 μL. The retention time and corresponding ESI-MS data were used as identity of molecules.

Sequence of PTPμ (P28827 21-1452): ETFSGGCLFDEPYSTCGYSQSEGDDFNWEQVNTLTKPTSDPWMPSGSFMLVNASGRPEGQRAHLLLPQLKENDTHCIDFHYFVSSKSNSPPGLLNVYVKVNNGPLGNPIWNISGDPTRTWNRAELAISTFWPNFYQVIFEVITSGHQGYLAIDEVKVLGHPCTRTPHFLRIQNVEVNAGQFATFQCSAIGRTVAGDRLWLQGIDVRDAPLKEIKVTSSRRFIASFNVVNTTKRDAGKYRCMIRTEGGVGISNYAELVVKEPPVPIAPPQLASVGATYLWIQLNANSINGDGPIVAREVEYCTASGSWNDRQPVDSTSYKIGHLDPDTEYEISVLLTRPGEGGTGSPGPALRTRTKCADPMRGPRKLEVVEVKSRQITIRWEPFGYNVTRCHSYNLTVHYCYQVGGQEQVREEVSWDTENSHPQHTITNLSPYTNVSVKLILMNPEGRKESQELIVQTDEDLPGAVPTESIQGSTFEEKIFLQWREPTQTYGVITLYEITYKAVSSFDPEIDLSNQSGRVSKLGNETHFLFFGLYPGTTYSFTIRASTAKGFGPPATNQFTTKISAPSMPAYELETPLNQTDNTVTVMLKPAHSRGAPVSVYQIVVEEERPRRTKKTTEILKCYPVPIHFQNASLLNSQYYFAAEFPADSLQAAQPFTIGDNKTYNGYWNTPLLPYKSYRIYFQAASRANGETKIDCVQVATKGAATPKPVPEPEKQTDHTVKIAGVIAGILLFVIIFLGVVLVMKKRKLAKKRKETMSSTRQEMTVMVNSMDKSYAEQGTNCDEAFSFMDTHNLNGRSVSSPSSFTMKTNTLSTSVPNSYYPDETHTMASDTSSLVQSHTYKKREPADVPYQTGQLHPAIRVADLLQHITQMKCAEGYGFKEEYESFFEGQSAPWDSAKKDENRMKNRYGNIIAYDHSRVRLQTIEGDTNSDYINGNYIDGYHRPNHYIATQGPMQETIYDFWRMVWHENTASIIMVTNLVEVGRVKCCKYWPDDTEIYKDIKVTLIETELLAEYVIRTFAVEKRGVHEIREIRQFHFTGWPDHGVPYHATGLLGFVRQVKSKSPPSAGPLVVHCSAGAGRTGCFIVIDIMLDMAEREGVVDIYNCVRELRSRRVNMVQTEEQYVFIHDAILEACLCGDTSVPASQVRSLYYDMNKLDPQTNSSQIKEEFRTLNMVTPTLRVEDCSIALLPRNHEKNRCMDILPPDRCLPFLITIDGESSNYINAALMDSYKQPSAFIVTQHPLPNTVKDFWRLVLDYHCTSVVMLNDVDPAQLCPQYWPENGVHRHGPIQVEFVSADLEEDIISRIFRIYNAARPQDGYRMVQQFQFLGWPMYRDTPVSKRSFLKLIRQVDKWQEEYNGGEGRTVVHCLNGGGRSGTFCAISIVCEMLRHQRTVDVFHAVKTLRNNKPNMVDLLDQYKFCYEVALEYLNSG
Sequence of TbPTP1 (Q38AT7 entry or part of it): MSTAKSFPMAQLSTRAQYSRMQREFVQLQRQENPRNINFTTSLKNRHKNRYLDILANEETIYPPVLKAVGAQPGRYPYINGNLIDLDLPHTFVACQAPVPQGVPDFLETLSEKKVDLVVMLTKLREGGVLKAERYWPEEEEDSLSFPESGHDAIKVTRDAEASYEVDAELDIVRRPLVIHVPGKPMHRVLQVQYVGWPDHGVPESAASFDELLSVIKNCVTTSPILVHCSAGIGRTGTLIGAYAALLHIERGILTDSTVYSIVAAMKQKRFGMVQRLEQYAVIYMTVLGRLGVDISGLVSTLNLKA
Sequence of mPTPA (P9WIA1 whole entry): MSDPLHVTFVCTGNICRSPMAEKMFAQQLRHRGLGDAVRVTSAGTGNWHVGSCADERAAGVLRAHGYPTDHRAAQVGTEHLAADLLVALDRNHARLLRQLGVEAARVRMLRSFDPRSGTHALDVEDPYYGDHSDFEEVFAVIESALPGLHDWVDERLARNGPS
Sequence of FAP1 (Q12923 whole entry): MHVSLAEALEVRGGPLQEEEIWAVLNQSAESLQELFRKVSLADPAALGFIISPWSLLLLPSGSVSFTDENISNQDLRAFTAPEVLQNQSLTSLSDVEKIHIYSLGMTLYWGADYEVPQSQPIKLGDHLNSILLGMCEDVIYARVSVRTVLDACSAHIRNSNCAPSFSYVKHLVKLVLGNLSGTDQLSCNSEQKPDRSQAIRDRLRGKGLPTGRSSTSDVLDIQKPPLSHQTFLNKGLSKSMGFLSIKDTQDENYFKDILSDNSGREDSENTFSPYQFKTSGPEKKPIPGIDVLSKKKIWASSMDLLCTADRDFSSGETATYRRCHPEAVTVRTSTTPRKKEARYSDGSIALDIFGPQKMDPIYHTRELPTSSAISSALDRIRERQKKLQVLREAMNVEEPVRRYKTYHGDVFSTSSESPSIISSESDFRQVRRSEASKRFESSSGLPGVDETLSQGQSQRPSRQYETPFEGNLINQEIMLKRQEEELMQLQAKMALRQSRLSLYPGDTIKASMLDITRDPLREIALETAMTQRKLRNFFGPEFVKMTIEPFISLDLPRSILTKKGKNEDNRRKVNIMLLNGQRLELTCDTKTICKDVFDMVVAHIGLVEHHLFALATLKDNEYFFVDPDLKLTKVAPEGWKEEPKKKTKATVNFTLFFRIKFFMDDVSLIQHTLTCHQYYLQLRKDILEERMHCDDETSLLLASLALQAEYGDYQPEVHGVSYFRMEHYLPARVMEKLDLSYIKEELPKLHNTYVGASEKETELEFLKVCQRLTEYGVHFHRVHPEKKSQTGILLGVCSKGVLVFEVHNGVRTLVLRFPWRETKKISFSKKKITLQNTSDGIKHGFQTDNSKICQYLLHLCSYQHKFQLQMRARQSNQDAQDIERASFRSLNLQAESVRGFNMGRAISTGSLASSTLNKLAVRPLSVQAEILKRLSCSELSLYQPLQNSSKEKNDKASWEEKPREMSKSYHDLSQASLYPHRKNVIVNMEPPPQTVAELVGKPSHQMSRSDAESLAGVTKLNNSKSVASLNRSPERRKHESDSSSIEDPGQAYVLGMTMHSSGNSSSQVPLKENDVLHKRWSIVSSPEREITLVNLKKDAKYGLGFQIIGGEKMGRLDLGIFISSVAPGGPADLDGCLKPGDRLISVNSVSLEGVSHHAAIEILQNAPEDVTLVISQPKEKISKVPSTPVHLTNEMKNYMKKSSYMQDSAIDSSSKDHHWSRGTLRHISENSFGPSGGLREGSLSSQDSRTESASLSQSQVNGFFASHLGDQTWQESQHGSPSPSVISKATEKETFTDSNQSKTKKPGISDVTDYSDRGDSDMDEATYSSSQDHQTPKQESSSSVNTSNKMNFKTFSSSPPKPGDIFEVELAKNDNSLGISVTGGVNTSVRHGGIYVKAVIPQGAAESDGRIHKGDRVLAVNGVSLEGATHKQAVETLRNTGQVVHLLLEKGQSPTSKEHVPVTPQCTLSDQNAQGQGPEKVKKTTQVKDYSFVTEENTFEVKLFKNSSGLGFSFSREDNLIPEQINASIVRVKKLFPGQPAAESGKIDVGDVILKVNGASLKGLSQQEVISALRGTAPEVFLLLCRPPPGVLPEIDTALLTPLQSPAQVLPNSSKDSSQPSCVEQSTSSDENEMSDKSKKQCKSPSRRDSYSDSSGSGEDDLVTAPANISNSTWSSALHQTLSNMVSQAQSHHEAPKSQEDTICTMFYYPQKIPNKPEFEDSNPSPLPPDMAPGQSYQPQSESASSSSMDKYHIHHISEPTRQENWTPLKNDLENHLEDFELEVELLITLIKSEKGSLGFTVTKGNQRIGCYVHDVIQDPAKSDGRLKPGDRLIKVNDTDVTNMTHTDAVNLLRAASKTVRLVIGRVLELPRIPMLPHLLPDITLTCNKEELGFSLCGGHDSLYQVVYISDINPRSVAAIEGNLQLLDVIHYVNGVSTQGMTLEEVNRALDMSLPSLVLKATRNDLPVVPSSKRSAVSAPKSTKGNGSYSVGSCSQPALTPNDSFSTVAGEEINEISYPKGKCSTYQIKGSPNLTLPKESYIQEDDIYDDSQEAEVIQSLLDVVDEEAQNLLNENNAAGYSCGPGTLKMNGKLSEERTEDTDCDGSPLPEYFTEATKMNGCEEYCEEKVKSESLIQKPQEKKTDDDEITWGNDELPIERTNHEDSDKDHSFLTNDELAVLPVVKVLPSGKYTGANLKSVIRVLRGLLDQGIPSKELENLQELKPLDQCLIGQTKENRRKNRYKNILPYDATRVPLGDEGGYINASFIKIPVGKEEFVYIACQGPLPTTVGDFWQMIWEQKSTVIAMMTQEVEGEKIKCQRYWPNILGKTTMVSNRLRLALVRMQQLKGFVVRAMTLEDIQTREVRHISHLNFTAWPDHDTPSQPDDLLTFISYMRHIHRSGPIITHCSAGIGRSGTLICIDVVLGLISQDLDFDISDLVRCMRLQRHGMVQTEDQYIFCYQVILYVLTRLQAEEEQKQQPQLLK

SMILES	MDA-MB-231 cell survival/growth (MTT) [1]	H1975 cell proliferation (MTT) [2]	IC50 (SHP2 [3]) [µM]	IC50 (PTPμ) [µM]	IC50 (PP5) [µM]	other results
CC(C)c1ccc(NC(=O)C(=O)Nc2ccc(NC(=O)C(c3ccccc3)S(=O)(=O)O)cc2)cc1 (stereo not drawn) [Compound 6, 2-((4-(2-((4-isopropylphenyl)amino)-2-oxoacetamido)phenyl)amino)-2-oxo-1-phenylethanesulfonic acid]	significantly (**p<0.01) reduced cell survival	reduce H1975 cell proliferation in a dose dependent manner; also recorded: significantly (**p<0.01) reduced cell proliferation	2.33 ± 0.04			
O=C(Nc1ccc(NC(=O)C(c2ccccc2)S(=O)(=O)O)cc1)C(=O)Nc1ccc(-c2ccccc2)cc1 (stereo not drawn) [Compound 5, 2-((4-(2-([1,1′-biphenyl]-4-ylamino)-2-oxoacetamido)phenyl)amino)-2-oxo-1-phenylethanesulfonic acid]	significantly (**p<0.01) reduced cell survival	reduce H1975 cell proliferation in a dose dependent manner; also recorded: significantly (**p<0.01) reduced cell proliferation	1.36 ± 0.04	> 10	> 10	
O=C(Nc1ccc(OCc2ccccc2)c(Cl)c1)C(=O)Nc1ccccc1NC(=O)C(c1ccccc1)S(=O)(=O)O (stereo not drawn) [Compound L319-21-M50]						IC50 (Ssu72): > 50 µM; IC50 (PEST): > 50 µM; IC50 (FAP1): 39 µM; IC50 (VHX): > 50 µM; IC50 (TbPTP1): > 50 µM
O=C(Nc1ccc(NC(=O)C(c2ccccc2)S(=O)(=O)O)cc1)C(=O)Nc1cc(-c2ccc(Br)cc2)n[nH]1 (stereo not drawn) [Compound 4, 2-((4-(2-((3-(4-bromophenyl)-1H-pyrazol-5-yl)amino)-2-oxoacetamido)phenyl)amino)-2-oxo-1-phenylethanesulfonic acid]		no significant effect	0.73 ± 0.02	> 10	> 10	Fold selectivity for SHP2 against PTPs examined (SHP2 [3]; cefsulodin: with the exception of SHP1): ≥ 8 fold
O=C(Nc1ccccc1)C(=O)Nc1ccc(NC(=O)C(c2ccccc2)S(=O)(=O)O)cc1 (stereo not drawn) [Compound 7, 2-oxo-2-((4-(2-oxo-2-(phenylamino)acetamido)phenyl)amino)-1-phenylethanesulfonic acid]	did not	ineffective; also recorded: did not	> 50			Effect on EGF-mediated ERK1/2 phosphorylation [4]: no appreciable effect; also recorded: failed to block EGF-mediated ERK1/2 phosphorylation; Inhibition of SHP2 at 50 μM (SHP2 [3]; 50 μM): no inhibition
O=C(Nc1ccc(NC(=O)C(c2ccccc2)S(=O)(=O)O)cc1)C(=O)Nc1ccc(-c2cccs2)cc1 (stereo not drawn) [Compound 3, 2-oxo-2-((4-(2-oxo-2-((4-(thiophen-2-yl)phenyl)amino)acetamido)phenyl)amino)-1-phenylethanesulfonic acid]		no significant effect	0.9	> 10	> 10	
O=C(CS(=O)(=O)O)Nc1ccc(N2CCOCC2)cc1						IC50 (mPTPA): 2.2 µM; IC50 (LMWPTP): 63 µM
C=CS(=O)(=O)c1ccccc1 [phenyl vinyl sulfone]						Covalent adduct formation with SHP2 (QTOF ESI-MS) (SHP2 [5]): formed a covalent adduct
